Measurements from ChEMBL document CHEMBL1123338, “Synthesis and structure-activity relationship studies of a series of 5-aryl-4,6-dithianonanedioic acids and related compounds: a novel class of leukotriene antagonists” (J Med Chem, 1986).

Assays:
[1] = target: Cysteinyl leukotriene receptor (Cavia porcellus); test: Compound is evaluated for its ability to inhibit [3H]LTD4 binding to Cysteinyl leukotriene D4 receptor in guinea pig lung membranes
[2] = test system: Cysteinyl leukotriene receptor (Cavia porcellus); test: In vitro ability to antagonize a leukotriene D4 induced contraction of guinea pig trachea.

Compound | Ki [1] [µM] | -Log KB [2]
CCCCCCCCCCC#Cc1ccccc1C(SCCC(=O)O)SCCC(=O)O | 2.515 | 5.9
CCCCCCCCCOc1cccc(C(SCCC(=O)O)SCCC(=O)O)c1 | 0.624 | 6
O=C(O)CCSC(SCCC(=O)O)c1ccccc1CCCCCCCCC1CCCCC1 | 1.958 | 5.5
O=C(O)CCSC(SCCC(=O)O)c1cc(C(F)(F)F)ccc1CCCCCCCCc1ccccc1 | 0.476 | 7
CCCCc1ccc(CCCCc2ccccc2C(SCCC(=O)O)SCCC(=O)O)cc1 | 4.228 | 5.6
O=C(O)CCSC(SCCC(=O)O)c1ccccc1OCCCC1CCCCC1 | 1.009 | 
CCCCCCCCCCCOc1ccccc1C(C)(SCCC(=O)O)SCCC(=O)O | > 20 | 5.6
CCCCCCCCCCCCc1ccccc1C(SCCCC(=O)O)SCCCC(=O)O | 0.934 | 
CCCCCCCCCCC#CC(SCCCC(=O)O)SCCCC(=O)O |  | 5.6
O=C(O)CCSC(SCCC(=O)O)c1ccccc1OCCCCCCCCCO | > 20 | 
CCCCCCCCCC/C=C/c1ccccc1C(SCCC(=O)O)SCCC(=O)O | 0.491 | 5.8
O=C(O)CCSC(SCCC(=O)O)c1ccccc1OCCCCCCc1ccccc1 | 11.526 | 5.3
CCCCCCCCCCCCCCc1ccccc1C(SCCC(=O)O)SCCC(=O)O | 1.246 | 
O=C(O)CCSC(SCCC(=O)O)c1cccc(CCCCCCCCc2ccccc2)c1 | 0.43 | 6
CCCCCCCCCOc1ccccc1C(SCCC(=O)O)SCCC(=O)O | 4.094 | 5.8
CCCCCCCCCCc1ccccc1C(SCCC(=O)O)SCCC(=O)O | 1.18 | 6.5
O=C(O)CCSC(SCCC(=O)O)c1ccccc1CCCCCCCCCCCC(F)(F)F | 0.147 | 6.2
CCCCC/C=C/C/C=C/COc1cccc(C(SCCC(=O)O)SCCC(=O)O)c1 | 0.187 | 6.2
CCCCCCCCCCCOc1ccc([N+](=O)[O-])cc1C(SCCC(=O)O)SCCC(=O)O | 0.303 | 6.1
CCCCCCCCCCCCCOc1ccc(C(SCCC(=O)O)SCCC(=O)O)cc1 | > 20 | 
CCCCCCCCCCCCC(SCCC(=O)O)SCCC(=O)O |  | 5.2
CCCCCCCCCCC[C@@H]1CCC(SCCC(=O)O)(SCCC(=O)O)c2ccccc21 | > 20 | 
CCCCCCCCCCCOc1ccc(C(SCCC(=O)O)SCCC(=O)O)cc1 | > 20 | 
CCCCCCCCCC/C=C\c1ccccc1C(SCCC(=O)O)SCCC(=O)O | 1.38 | 
CCCCCCCCCCCCc1ccccc1C(CCCC(=O)O)CCCC(=O)O | 2.337 | 

Compound | Ki [1] [µM] | -Log KB [2]
CCCCCCCCCCCCc1ccccc1C(SCC(=O)O)SCC(=O)O | 0.846 | 5.9
CCCCCCCCCCCOc1ccc(Br)cc1C(SCCC(=O)O)SCCC(=O)O | 0.624 | 6
CCCCCCCCCCCCc1cccc(C)c1C(SCCC(=O)O)SCCC(=O)O | 3.672 | 
CCOCCOCCOCCOc1ccccc1C(SCCC(=O)O)SCCC(=O)O | > 20 | 
CCCCCCCCc1ccccc1C(SCCC(=O)O)SCCC(=O)O | 5.674 | 5.2
CCCCCCCCCCc1ccc(C(SCCC(=O)O)SCCC(=O)O)cc1 | 7.565 | 
CCCCCCCCCCCOc1ccccc1C(SCCC(=O)O)SCCC(=O)O | 0.287 | 6.4
CCCCCCCCCCCCc1ccccc1C(SCCC(=O)O)[S+]([O-])CCC(=O)O (configuration not stated) | 0.423 | 5.8
C#CCCCCCCCCCCc1ccccc1C(SCCC(=O)O)SCCC(=O)O | 0.141 | 6.8
CCCCCCCCCCCCC#CC(SCCC(=O)O)SCCC(=O)O |  | 5.7
CCCCCCCCCCCOc1cccc(C(SCCC(=O)O)SCCC(=O)O)c1 | 0.078 | 6.1
CCCc1c(OCCCCCOc2ccccc2C(SCCC(=O)O)SCCC(=O)O)ccc(C(C)=O)c1O | 3.149 | 6.6
CCCCCCCCCCCOc1ccc(OC)cc1C(SCCC(=O)O)SCCC(=O)O | 0.579 | 5.9
CCCCCCCCCCCCc1ccccc1C1S[C@H](C(=O)O)[C@H](C(=O)O)S1 (stereo in doubt; 61) | 17.578 | 
CCCCCCCCCCCOc1ccc(O)cc1C(SCCC(=O)O)SCCC(=O)O | 0.156 | 6
CCCCC/C=C/C/C=C/COc1ccccc1C(SCCC(=O)O)SCCC(=O)O | 1.002 | 6
CCCCCCCCC#CC(SCCC(=O)O)SCCC(=O)O |  | 5
CCCCCCCCCCC[C@@H]1CC(SCCC(=O)O)(SCCC(=O)O)c2ccccc21 | 2.092 | 
CCCCCCCCCCCSc1ccccc1C(SCCC(=O)O)SCCC(=O)O | 0.646 | 6
CCCCc1ccccc1C(SCCC(=O)O)SCCC(=O)O | > 20 | 
CCCCCCCCCCCCCOc1cccc(C(SCCC(=O)O)SCCC(=O)O)c1 | 0.53 | 
CCCCCCCCCCCCc1ccccc1C1S[C@@H](C(=O)O)[C@H](C(=O)O)S1 | 0.401 | 
CCCCCCCCCCC#CC(SCCC(=O)O)SCCC(=O)O |  | 6.1
CCCCCCCCCCCCc1ccccc1C(SCCC(=O)O)SCCC(=O)O | 0.445 | 6
CCCCCCCCCCC#CC(SCC(=O)O)SCC(=O)O |  | 5.3
